Data reported in patent publication US20250236578A1, “NOVEL CANNABINOID DERIVATIVES” (CANNASOUL ANALYTICS LTD., priority 2021, published 2025).

What was measured:
PC3 cell line = test: PI-positive cell count, prostate cancer cells (IncuCyte); assay type: cell-based, Human; details: for Number of cells (PI-positive): 24 h post-treatment
Experimental: (§1) The effect of the compounds according to certain embodiments of the present invention as anti-cancer agents was assessed. Human cancer cells of prostate (PC3 cell line), bladder (T24 cell line), or breast (MDA-MB-231 cell line) cancers were thawed and cultured in suitable media at a final concentration of 3×10^5 cells/mL and tested in triplicates. Following 24 hours of incubation, cells were treated with the tested compounds at 2 μg/ml and 4 μg/ml concentrations or controls (cells were grown in starvation medium and treated with Mitomycin C). Mitomycin C is a potent antineoplastic agent that creates DNA cross-linkage resulting in cell arrest and consequently cell death. It is used to treat various types of cancers such as bladder and breast cancers. In in-vitro models, it acts as a proliferation inhibitor as it induces G0-G1 cell growth arrest. The number of cells in each sample was quantified immediately upon treatment (time-point 0) and every 24 hours until full cell confluency was reached. 24 hours post-treatment, PI (1 μg/ml) was added to the treated cells for 1 hour. Using cell-by-cell analysis (IncuCyte™ cell imager), the PI-positive cells were counted and compared to the relative number of cells in the non-treated (NT) wells.

T24 cell line = test: PI-positive cell count, bladder cancer cells (IncuCyte); assay type: cell-based, Human; details: for Number of cells (PI-positive): 24 h post-treatment
Experimental: as §1

MDA-MB-231 cell line = test: PI-positive cell count, breast cancer cells (IncuCyte); assay type: cell-based, Human; details: for Number of cells (PI-positive): 24 h post-treatment
Experimental: as §1

Human adrenal cells = test: Steroidogenesis: cortisol secretion by Forskolin-stimulated human adrenal cells (ELISA); assay type: cell-based; details: 24 h, Forskolin 10 μM
Experimental: The effect of the compounds according to certain embodiments of the present invention as inhibitors of steroidogenesis was assessed. Human adrenal cells were thawed and cultured in a suitable medium at a final concentration of 5×10^5 cells per mL (performed in triplicates). Following 24 hours of incubation, cells were treated with 10 μM Forskolin. After 48 hours of incubation, cells were treated with controls (1 μM Prochloraz, and 0.2 μg/mL or 1 μg/mL CBD) and compounds according to embodiments of the present invention for 24 hours. Next, supernatants were collected, and the secretion levels of cortisol were measured by ELISA (R&D systems). Optical density was determined by ‘CLARIOStar-plus’® plate-reader. Cortisol concentration (ng/ml) was calculated using a standard curve.

[1] = Breast cancer MDA-MB-231, 2 μg/ml
[2] = Breast cancer MDA-MB-231, 4 μg/ml

SMILES | % NT (PI-positive cells relative to non-treated) (PC3 cell line; Prostate cancer PC3, 2 μg/ml) | Number of cells (PI-positive) (PC3 cell line; Prostate cancer PC3, 2 μg/ml) | % NT (PI-positive cells relative to non-treated) (PC3 cell line; Prostate cancer PC3, 4 μg/ml) | Number of cells (PI-positive) (PC3 cell line; Prostate cancer PC3, 4 μg/ml) | % NT (PI-positive cells relative to non-treated) (T24 cell line; Bladder cancer T24, 2 μg/ml) | Number of cells (PI-positive) (T24 cell line; Bladder cancer T24, 2 μg/ml) | % NT (PI-positive cells relative to non-treated) (T24 cell line; Bladder cancer T24, 4 μg/ml) | Number of cells (PI-positive) (T24 cell line; Bladder cancer T24, 4 μg/ml) | % NT (PI-positive cells relative to non-treated) (MDA-MB-231 cell line; [1]) | Number of cells (PI-positive) (MDA-MB-231 cell line; [1]) | % NT (PI-positive cells relative to non-treated) (MDA-MB-231 cell line; [2]) | Number of cells (PI-positive) (MDA-MB-231 cell line; [2]) | Cortisol (Human adrenal cells; inhibitor 0.2 μg/mL) | Cortisol % of Forskolin (Human adrenal cells; inhibitor 0.2 μg/mL) | Cortisol (Human adrenal cells; inhibitor 1 μg/mL) | Cortisol % of Forskolin (Human adrenal cells; inhibitor 1 μg/mL)
C=C(C)[C@@H]1CCC(C)=C[C@H]1c1c(O)cc(CCCCC)cc1O [CBD, cannabidiol, reference compound] | 90% | 22.53 | 320% | 80.13 | 156% | 171.47 | 1794% | 1969.93 | 175% | 89.40 | 1325% | 675.73 | 101 ng/mL | 95% | 62 ng/mL | 58%
CCCCCCc1cc(O)c(C2C=C(C)CCC2C(C)(C)O)c(O)c1 (stereo not drawn) [Formula 1] | 216% | 54.13 | 260% | 65.27 |  |  |  |  |  |  |  |  | 37 ng/mL | 35% | 24 ng/mL | 22%
CCCCCc1cc(O)c(C2CC(C)CCC2C(C)(C)O)c(O)c1 (stereo not drawn) [Formula 2] | 307% | 76.93 | 363% | 90.93 |  |  |  |  |  |  |  |  | 100 ng/mL | 94% | 77 ng/mL | 72%
CCCCCCCc1cc(O)c(C2C=C(C)CCC2C(C)(C)O)c(O)c1 (stereo not drawn) [Formula 4] | 228% | 57.27 | 2810% | 704.33 | 108% | 118.20 | 703% | 771.60 | 120% | 61.07 | 1417% | 722.47 | 38 ng/mL | 36% | 35 ng/mL | 32%
CCCCCCC(C)(C)c1cc(O)c(C2C=C(C)CCC2C(C)(C)O)c(O)c1 (stereo not drawn) [Formula 7] | 326% | 81.80 | 4139% | 1037.53 | 429% | 470.67 | 1156% | 1269.33 | 277% | 141.47 | 2197% | 1120.53 | 39 ng/mL | 37% | 47 ng/mL | 44%
CCCCCc1cc(O)c(C2C=C(C)CCC2C(C)(C)O)c(O)c1C(=O)OC (stereo not drawn) [Formula 12] | 215% | 53.93 | 390% | 97.80 |  |  |  |  |  |  |  |  | 43 ng/mL | 41% | 45 ng/mL | 42%
CCCCCc1cc(O)c(C2C=C(C)CCC2C(C)(C)O)c(O)c1C(=O)NCCCN1CCOCC1 (stereo not drawn) [Formula 14] |  |  |  |  |  |  |  |  |  |  |  |  | 41 ng/mL | 39% | 45 ng/mL | 42%
CCCN(CCOc1c(Cl)cc(Cl)cc1Cl)C(=O)n1ccnc1 [Prochloraz, reference compound] |  |  |  |  |  |  |  |  |  |  |  |  |  |  | 23 ng/mL | 22%
